Results from ChEMBL document CHEMBL3638784, “Fused bicyclic oxazolidinone CETP inhibitor” (2014).

Molecular target: T1, Cholesteryl ester transfer protein (Homo sapiens, UniProt P11597)
T1 sequence (P11597 whole entry): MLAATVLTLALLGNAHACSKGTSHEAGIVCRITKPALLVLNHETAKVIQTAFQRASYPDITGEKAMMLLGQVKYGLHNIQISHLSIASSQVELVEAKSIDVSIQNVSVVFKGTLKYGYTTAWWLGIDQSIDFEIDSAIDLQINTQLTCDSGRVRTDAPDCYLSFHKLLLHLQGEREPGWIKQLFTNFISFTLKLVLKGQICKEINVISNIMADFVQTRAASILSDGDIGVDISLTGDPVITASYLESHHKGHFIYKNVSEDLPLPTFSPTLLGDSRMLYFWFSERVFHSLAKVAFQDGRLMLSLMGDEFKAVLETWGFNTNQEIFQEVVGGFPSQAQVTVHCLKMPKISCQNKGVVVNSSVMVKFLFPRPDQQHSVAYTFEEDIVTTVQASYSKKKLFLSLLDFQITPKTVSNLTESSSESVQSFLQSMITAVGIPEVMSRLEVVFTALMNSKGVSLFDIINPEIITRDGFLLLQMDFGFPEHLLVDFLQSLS
Assay: Scintillation Proximity Assay (SPA): First, low density lipoprotein (LDL) (Meridian) was biotinylated by incubating LDL with biotin for 1 hour on ice, after which it was dialyzed to remove free biotin. Then compounds at varying concentrations were incubated with 15 nM CETP (reagent production group, In Vitro Pharmacology, MRL Rahway) and 50 ug/ml of the biotinylated LDL in 50 mM HEPES, 150 mM NaCl, pH 7.4, for 1 hour at 37° C. The reaction was started by adding 3H-cholesterol ester high density lipoprotein (HDL) (American Radiochemicals Corp) at a concentration of ~0.6 nM. The reaction proceeded for 2 hours at 37° C., after which time it was quenched by the addition of 12% acetic acid. PVT streptavadin-coated scintillation proximity beads, which had been brought to room temperature, were then added at a concentration of 4 mg/ml. The assay was then mixed and counted after one half hour in a Microbeta plate reader.

Q: For `N#Cc1cccc(-c2ccc(C(F)(F)F)cc2[C@@H]2CC[C@H]3[C@@H](c4cc(C(F)(F)F)cc(C(F)(F)F)c4)OC(=O)N23)c1`, which IC50 is on record?
A: The IC50 was 177 nM.
